In patent publication US20250388575A1, “HETEROBIFUNCTIONAL COMPOUNDS AND METHODS OF TREATING DISEASE” (Halda Therapeutics OpCo, Inc., priority 2022, published 2025) one finds GI50 and Kd data, which are given here for 15 compounds.

For experiment [1], the system named is VCaP cells. The experiment in a line: Cellular growth inhibition assay for VCaP cells, CellTiter-Glo. The experiment is classed as cell-based, human. The settings on record: VCaP cells, 72 hours, CellTiter-Glo, read-out: GI50. The procedure, abridged: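 GI50 values come from four-parameter curve fits of luminescence data normalized to a zero baseline. Compound, in medium with 0.5% DMSO, was added one day after plating and left for 72 h before CellTiter-Glo 2.0 addition.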
Background: Cellular ATP, detected with luciferase, serves as a proxy for viable cell number.

In experiment [2] the target is BRD4-BD1 (Homo sapiens (Human), UniProt O60885). Briefly: bromoKdELECT assay for binding affinity to BRD4-BD1. The settings on record: 11-point 3-fold dilution. The method, then:
(§1) Compounds were tested using a bromoKdELECT assay. T7 phage strains displaying bromodomains were grown in parallel in 24-well blocks in an E. coli host derived from the BL21 strain. E. coli were grown to log-phase and infected with T7 phage from a frozen stock (multiplicity of infection=0.4) and incubated with shaking at 32° C. until lysis (90-150 minutes). The lysates were centrifuged (5,000×g) and filtered (0.2 μm) to remove cell debris. Streptavidin-coated magnetic beads were treated with biotinylated small molecule or acetylated peptide ligands for 30 minutes at room temperature to generate affinity resins for bromodomain assays. The liganded beads were blocked with excess biotin and washed with blocking buffer (SeaBlock (Pierce), 1% BSA, 0.05% Tween 20, 1 mM DTT) to remove unbound ligand and to reduce nonspecific phage binding. Binding reactions were assembled by combining bromodomains, liganded affinity beads, and test compounds in 1× binding buffer (17% SeaBlock, 0.33×PBS, 0.04% Tween 20, 0.02% BSA, 0.004% Sodium azide, 7.4 mM DTT). Test compounds were prepared as 1000× stocks in 100% DMSO. Kds were determined using an 11-point 3-fold compound dilution series with one DMSO control point. All compounds for Kd measurements are distributed by acoustic transfer (non-contact dispensing) in 100% DMSO. The compounds were then diluted directly into the assays such that the final concentration of DMSO was 0.09%. All reactions performed in polypropylene 384-well plates. Each was a final volume of 0.02 ml. The assay plates were incubated at room temperature with shaking for 1 hour and the affinity beads were washed with wash buffer (1×PBS, 0.05% Tween 20). The beads were then resuspended in elution buffer (1×PBS, 0.05% Tween 20, 2 μM non-biotinylated affinity ligand) and incubated at room temperature with shaking for 30 minutes. The bromodomain concentration in the eluates was measured by qPCR.

In experiment [3] the test system is T-Rex 293 cell line SC3 cells lacking increased expression of androgen receptor protein. The experiment in a line: Cellular growth inhibition, T-Rex 293 SC3 cells lacking increased androgen receptor expression (no doxycycline), CellTiter-Glo. The settings on record: T-Rex 293 SC3 cells lacking increased androgen receptor expression (not exposed to doxycycline), 72 hours, CellTiter-Glo; read-out: GI50. The experiment is classed as cell-based. In a few lines:
(§2)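 SC3, a T-Rex 293 clone with doxycycline-inducible wild-type androgen receptor, was seeded in phenol red-free DMEM with 10% charcoal-dextran FBS, with or without 10 ng/mL doxycycline. Compound added at 24 h (0.5% DMSO) for 72 h at 37° C. CellTiter-Glo 2.0 luminescence; GI50 from four-parameter fit.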

Experiment [4] concerns T47D cells. Briefly: Cellular growth inhibition assay for T47D cells, CellTiter-Glo. The settings on record: 72 hours treatment, CellTiter-Glo 2.0. The format is cell-based, human. The procedure, abridged: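 Growth inhibition as GI50, fitted with four parameters to CellTiter-Glo luminescence after 72 h of compound exposure (0.5% DMSO). Cells were T47D, grown in insulin-supplemented (0.2 units/mL) DMEM with 10% FBS and treated one day post-seeding.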

In experiment [5] the target is BRD4-BD2 (Homo sapiens (Human), UniProt O60885). Briefly: bromoKdELECT assay for binding affinity to BRD4-BD2. The settings on record: 11-point 3-fold dilution. On the procedure:
as §1

Experiment [6] deals with T-Rex 293 cell line SC3 cells having increased expression of androgen receptor protein. The experiment in a line: Cellular growth inhibition, T-Rex 293 SC3 cells with increased androgen receptor expression (doxycycline), CellTiter-Glo. The experiment is classed as cell-based. The settings on record: T-Rex 293 SC3 cells with increased androgen receptor expression (exposed to 10 ng/mL doxycycline), 72 hours, CellTiter-Glo; read-out: GI50. The procedure, abridged: as §2

Where two headings read alike, the source gives them in different places. A value given as a limit tells only on which side of the number the result lay.

Consider `CCS(=O)(=O)Nc1ccc(Oc2ccc(CCC3CCN(c4ccc(C(=O)N[C@H]5CC[C@H](Oc6ccc(C#N)c(Cl)c6)CC5)nn4)CC3)cc2)c(-c2cn(C)c(=O)c3[nH]ccc23)c1` [I-38], for which the GI50 in experiment [1], in experiment [3], in experiment [4] and in experiment [6] was below 500 nM throughout. In addition, the Kd in experiment [2] and in experiment [5] was 500 to 2500 nM in each case.

As to `CCS(=O)(=O)c1ccc(Oc2cccc(OCCC3CCN(c4ccc(C(=O)N[C@H]5CC[C@H](Oc6ccc(C#N)c(Cl)c6)CC5)nn4)CC3)c2F)c(-c2cn(C)c(=O)c3[nH]ccc23)c1` [I-42], the GI50 in experiment [1], in experiment [3], in experiment [4] and in experiment [6] was below 500 nM each time. For the same compound, the Kd in experiment [2] and in experiment [5] was 500 to 2500 nM in each case.

As to `CCS(=O)(=O)c1ccc(Oc2ccc(CCC3CCN(c4ccc(C(=O)N[C@H]5CC[C@H](Oc6ccc(C#N)c(Cl)c6)CC5)nn4)CC3)cc2)c(-c2cn(C)c(=O)c3[nH]ccc23)c1` [I-50], the GI50 in experiment [1], in experiment [3], in experiment [4] and in experiment [6] was below 500 nM in each case. Moreover, the dissociation constant Kd in experiment [2] and in experiment [5] was 50 to 500 nM each time.

As to `CCS(=O)(=O)c1ccc(Oc2ccc(COC3CCN(c4ccc(C(=O)N[C@H]5CC[C@H](Oc6ccc(C#N)c(Cl)c6)CC5)nn4)CC3)c(F)c2F)c(-c2cn(C)c(=O)c3[nH]ccc23)c1` [I-53], the GI50 in experiment [1], in experiment [3], in experiment [4] and in experiment [6] was below 500 nM in each case. Also, the equilibrium dissociation constant (Kd) in experiment [2] and in experiment [5] was above 2500 nM each time.

In the case of `CCS(=O)(=O)c1ccc(Oc2ccc(CCC3CCN(c4ccc(C(=O)N[C@H]5CC[C@H](Oc6ccc(C#N)c(Cl)c6)CC5)nn4)CC3)c(F)c2)c(-c2cn(C)c(=O)c3[nH]ccc23)c1` [I-54], the GI50 in experiment [1], in experiment [3], in experiment [4] and in experiment [6] was below 500 nM throughout. The Kd in experiment [2] and in experiment [5] was above 2500 nM each time.

With `CCS(=O)(=O)c1ccc(Oc2cccc(CCN3CCN(c4ccc(C(=O)N[C@H]5CC[C@H](Oc6ccc(C#N)c(Cl)c6)CC5)nn4)CC3)c2F)c(-c2cn(C)c(=O)c3[nH]ccc23)c1` [I-55], the GI50 in experiment [1] (Homo sapiens), in experiment [3], in experiment [4] (Homo sapiens) and in experiment [6] was below 500 nM throughout. Besides, the dissociation constant (Kd) in experiment [2] and in experiment [5] was below 50 nM in each case.

For `CCS(=O)(=O)c1ccc(Oc2ccc(CN3CC4(C3)CN(c3ccc(C(=O)N[C@H]5CC[C@H](Oc6ccc(C#N)c(Cl)c6)CC5)nn3)C4)cc2)c(-c2cn(C)c(=O)c3[nH]ccc23)c1` [I-56], the concentration for 50% growth inhibition (GI50) in experiment [1] (Homo sapiens), in experiment [3], in experiment [4] (Homo sapiens) and in experiment [6] was below 500 nM throughout. Also, the Kd in experiment [2] and in experiment [5] was below 50 nM each time.

As to `CCS(=O)(=O)c1ccc(Oc2ccc(CN3CC4(CCN(c5ccc(C(=O)N[C@H]6CC[C@H](Oc7ccc(C#N)c(Cl)c7)CC6)nn5)CC4)C3)cc2)c(-c2cn(C)c(=O)c3[nH]ccc23)c1` [I-57], the 50% growth inhibitory concentration (GI50) in experiment [1] (Homo sapiens), in experiment [3], in experiment [4] (Homo sapiens) and in experiment [6] was below 500 nM each time. Further, the Kd in experiment [2] and in experiment [5] was below 50 nM in each case.

As to `CCS(=O)(=O)c1ccc(Oc2ccc(N3CC4(CCN(c5ccc(C(=O)NC6CCC(Oc7ccc(C#N)c(Cl)c7)CC6)nn5)CC4)C3)cc2)c(-c2cn(C)c(=O)c3[nH]ccc23)c1` (stereo not shown) [I-90, N-[4-(3-chloro-4-cyano-phenoxy)cyclohexyl]-6-[2-[4-[4-ethylsulfonyl-2-(6-methyl-7-oxo-1H-pyrrolo[2,3-c]pyridin-4-yl)phenoxy]phenyl]-2,7-diazaspiro[3.5]nonan-7-yl]pyridazine-3-carboxamide], the GI50 in experiment [1] (Homo sapiens), in experiment [3], in experiment [4] (Homo sapiens) and in experiment [6] was below 500 nM throughout. Besides, the dissociation constant Kd in experiment [2] and in experiment [5] was 50 to 500 nM each time.

Take `Cn1cc(-c2cc(C(C)(C)O)ccc2Oc2cc(F)c(CCOC3CCN(c4ccc(C(=O)N[C@H]5CC[C@H](Oc6ccc(C#N)c(Cl)c6)CC5)nn4)CC3)c(F)c2)c2cc[nH]c2c1=O` [I-110]: the GI50 in experiment [1] (Homo sapiens) was below 500 nM; in experiment [3], 500 to 1500 nM; in experiment [4] (Homo sapiens), 1500 to 3000 nM; in experiment [6] it was below 500 nM. In addition, the Kd in experiment [2] and in experiment [5] was above 2500 nM throughout.

Take `Cn1cc(-c2cc(C(C)(C)O)ccc2Oc2ccc(CCC3CCN(c4ccc(C(=O)N[C@H]5CC[C@H](Oc6ccc(C#N)c(Cl)c6)CC5)nn4)CC3)cc2F)c2cc[nH]c2c1=O` [I-111]: the GI50 was below 500 nM in experiment [1], above 3000 nM in experiment [3], below 500 nM in experiment [4] and below 500 nM in experiment [6]. For the same compound, the Kd in experiment [2] and in experiment [5] was above 2500 nM throughout.

Take `CN(c1ccc(Oc2ccc(C(C)(C)O)cc2-c2cn(C)c(=O)c3[nH]ccc23)cc1)C1CCN(c2ccc(C(=O)N[C@H]3CC[C@H](Oc4ccc(C#N)c(Cl)c4)CC3)nn2)CC1` [I-137, N-[4-(3-chloro-4-cyano-phenoxy)cyclohexyl]-6-[4-[4-[4-(1-hydroxy-1-methyl-ethyl)-2-(6-methyl-7-oxo-1H-pyrrolo[2,3-c]pyridin-4-yl)phenoxy]-N-methyl-anilino]-1-piperidyl]pyridazine-3-carboxamide]: the 50% growth inhibitory concentration (GI50) in experiment [1] (Homo sapiens) was below 500 nM; in experiment [3], above 3000 nM; in experiment [4] (Homo sapiens), below 500 nM; in experiment [6], below 500 nM. In addition, the Kd in experiment [2] and in experiment [5] was 50 to 500 nM each time.

`CCS(=O)(=O)Cc1ccc(Oc2ccc(CCC3CCN(c4ccc(C(=O)NC5CCC(Oc6ccc(C#N)c(Cl)c6)CC5)nn4)CC3)cc2)c(-c2cn(C)c(=O)c3[nH]ccc23)c1` (stereo not shown) [I-154, N-[4-(3-chloro-4-cyano-phenoxy)cyclohexyl]-6-[4-[2-[4-[4-(ethylsulfonylmethyl)-2-(6-methyl-7-oxo-1H-pyrrolo[2,3-c]pyridin-4-yl)phenoxy]phenyl]ethyl]-1-piperidyl]pyridazine-3-carboxamide]: the GI50 in experiment [1], in experiment [3] and in experiment [6] was below 500 nM each time. Further, the equilibrium dissociation constant (Kd) in experiment [2] and in experiment [5] was 500 to 2500 nM each time.

As to `Cn1cc(-c2cc(NC(=O)CCC3CCN(c4ccc(C(=O)N[C@H]5CC[C@H](Oc6ccc(C#N)c(Cl)c6)CC5)nn4)CC3)ccc2Oc2ccc(F)cc2F)c2cc[nH]c2c1=O` [I-213], the GI50 in experiment [1] was 1500 to 3000 nM; in experiment [3], 500 to 1500 nM; in experiment [6], below 500 nM. In addition, the equilibrium dissociation constant (Kd) in experiment [2] and in experiment [5] was 500 to 2500 nM throughout.

As for `CCS(=O)(=O)c1ccc(Oc2ccc(CCC3CCN(c4ccc(C(=O)N[C@H]5CC[C@H](Oc6ccc(C#N)c(Cl)c6)CC5)nn4)CC3)nc2)c(-c2cn(C)c(=O)c3[nH]ccc23)c1` [I-219], the 50% growth inhibitory concentration (GI50) in experiment [1], in experiment [3], in experiment [4] and in experiment [6] was below 500 nM each time. Further, the Kd in experiment [2] and in experiment [5] was 50 to 500 nM throughout.

As usually defined, the GI50 is the concentration giving 50% growth inhibition. The term Kd denotes a measure of binding affinity in units of concentration.
